According to patent US20240261258A1, “Presurgical Perineural Administration of Resiniferatoxin For Reduction of Post-Operative Pain” (Sorrento Therapeutics, Inc., priority 2021, published 2024):

Assays:
[1] = tested on: healthy dogs undergoing TPLO surgery; assay: Algometer measurements on the surgical site; assay type: in vivo, dog
Protocol: The injection site of RTX or local anesthetic was evaluated by visual examination (normal, red, swollen) and palpation (no pain, mild, severe). The surgical site was evaluated by visual examination (normal, red, swollen) and with the aid of an algometer. With the dog in lateral recumbency, the tip of the algometer was placed on the surgical site and pressure was manually applied until the animal moved the leg. During the baseline data collection, several measurements were taken until 3 measurements were within ±1 Newton (N). The number recorded corresponded to the average of these 3 values. After surgery, the force was applied only once. Data were collected from both the left (treated) and the right (non-treated) hindlimbs.
Mean plus or minus the standard deviation (±SD) force in Newton was recorded at the pressure applied on the surgical incision when the subject moved the leg from the algometer. The left side was the treated stifle.

[2] = tested on: dog undergoing TPLO, femoral and sciatic nerves; assay: TPLO in a single dog after perineural RTX (Example A); assay type: in vivo; conditions: 25 μg RTX perineurally before surgery
Protocol: A TPLO (Tibial Plateau Osteotomy) was performed on a single dog. Before surgery, 25 μg RTX was administered perineurally to the femoral and sciatic nerves. The procedure included cutting the bone in the leg, changing the angle of the knee articulation, screwing in a plate, and resewing muscle that was cut to access the knee.
After waking up, all of the dog's motor functions were preserved. […] The dog was able to put the affected leg down from time to time when ambulating but, as would be expected, the leg was not fully weight-bearing.

## C=C(C)[C@]12C[C@@H](C)[C@@]34O[C@](Cc5ccccc5)(O[C@@H]1[C@@H]3C=C(COC(=O)Cc1ccc(O)c(OC)c1)C[C@]1(O)C(=O)C(C)=C[C@@H]41)O2 [RTX, resiniferatoxin]
[1]; Baseline, L (treated) hindlimb, Group 1 High, 25 μg
  Algometer force on surgical site when the dog moved the leg (mean ± SD): 7.4 ± 3.1 Newton
[1]; Baseline, L (treated) hindlimb, Group 2 Low, 6.25 μg
  Algometer force on surgical site when the dog moved the leg (mean ± SD): 6.2 ± 2.3 Newton
[1]; Baseline, L (treated) hindlimb, Group 3 Local, 50 μg
  Algometer force on surgical site when the dog moved the leg (mean ± SD): 5.7 ± 2.5 Newton
[1]; Baseline, R (non-treated) hindlimb, Group 1 High, 25 μg
  Algometer force on surgical site when the dog moved the leg (mean ± SD): 7.1 ± 3.7 Newton
[1]; Baseline, R (non-treated) hindlimb, Group 2 Low, 6.25 μg
  Algometer force on surgical site when the dog moved the leg (mean ± SD): 7.0 ± 2.3 Newton
[1]; Baseline, R (non-treated) hindlimb, Group 3 Local, 50 μg
  Algometer force on surgical site when the dog moved the leg (mean ± SD): 8.5 ± 2.4 Newton
[1]; Day 1, L (treated) hindlimb, Group 1 High, 25 μg
  Algometer force on surgical site when the dog moved the leg (mean ± SD): 7.4 ± 5.9 Newton
[1]; Day 1, L (treated) hindlimb, Group 2 Low, 6.25 μg
  Algometer force on surgical site when the dog moved the leg (mean ± SD): 5.0 ± 2.1 Newton
[1]; Day 1, L (treated) hindlimb, Group 3 Local, 50 μg
  Algometer force on surgical site when the dog moved the leg (mean ± SD): 9.2 ± 2.1 Newton
[1]; Day 1, R (non-treated) hindlimb, Group 1 High, 25 μg
  Algometer force on surgical site when the dog moved the leg (mean ± SD): 6.1 ± 2.3 Newton
[1]; Day 1, R (non-treated) hindlimb, Group 2 Low, 6.25 μg
  Algometer force on surgical site when the dog moved the leg (mean ± SD): 3.8 ± 1.9 Newton
[1]; Day 1, R (non-treated) hindlimb, Group 3 Local, 50 μg
  Algometer force on surgical site when the dog moved the leg (mean ± SD): 9.6 ± 6.3 Newton
[1]; Day 2, L (treated) hindlimb, Group 1 High, 25 μg
  Algometer force on surgical site when the dog moved the leg (mean ± SD): 5.4 ± 3.3 Newton
[1]; Day 2, L (treated) hindlimb, Group 2 Low, 6.25 μg
  Algometer force on surgical site when the dog moved the leg (mean ± SD): 5.0 ± 2.7 Newton
[1]; Day 2, L (treated) hindlimb, Group 3 Local, 50 μg
  Algometer force on surgical site when the dog moved the leg (mean ± SD): 8.5 ± 1.5 Newton
[1]; Day 2, R (non-treated) hindlimb, Group 1 High, 25 μg
  Algometer force on surgical site when the dog moved the leg (mean ± SD): 4.9 ± 2.1 Newton
[1]; Day 2, R (non-treated) hindlimb, Group 2 Low, 6.25 μg
  Algometer force on surgical site when the dog moved the leg (mean ± SD): 3.7 ± 2.0 Newton
[1]; Day 2, R (non-treated) hindlimb, Group 3 Local, 50 μg
  Algometer force on surgical site when the dog moved the leg (mean ± SD): 6.5 ± 3.5 Newton
[1]; Day 3, L (treated) hindlimb, Group 1 High, 25 μg
  Algometer force on surgical site when the dog moved the leg (mean ± SD): 5.3 ± 1.5 Newton
[1]; Day 3, L (treated) hindlimb, Group 2 Low, 6.25 μg
  Algometer force on surgical site when the dog moved the leg (mean ± SD): 5.9 ± 4.2 Newton
[1]; Day 3, L (treated) hindlimb, Group 3 Local, 50 μg
  Algometer force on surgical site when the dog moved the leg (mean ± SD): 7.7 ± 2.0 Newton
[1]; Day 3, R (non-treated) hindlimb, Group 1 High, 25 μg
  Algometer force on surgical site when the dog moved the leg (mean ± SD): 7.1 ± 1.8 Newton
[1]; Day 3, R (non-treated) hindlimb, Group 2 Low, 6.25 μg
  Algometer force on surgical site when the dog moved the leg (mean ± SD): 6.3 ± 1.5 Newton
[1]; Day 3, R (non-treated) hindlimb, Group 3 Local, 50 μg
  Algometer force on surgical site when the dog moved the leg (mean ± SD): 6.5 ± 3.4 Newton
[1]; Day 14, L (treated) hindlimb, Group 1 High, 25 μg
  Algometer force on surgical site when the dog moved the leg (mean ± SD): 5.3 ± 3.9 Newton
[1]; Day 14, L (treated) hindlimb, Group 2 Low, 6.25 μg
  Algometer force on surgical site when the dog moved the leg (mean ± SD): 2.9 ± 1.2 Newton
[1]; Day 14, L (treated) hindlimb, Group 3 Local, 50 μg
  Algometer force on surgical site when the dog moved the leg (mean ± SD): 6.6 ± 4.2 Newton
[1]; Day 14, R (non-treated) hindlimb, Group 1 High, 25 μg
  Algometer force on surgical site when the dog moved the leg (mean ± SD): 5.0 ± 2.3 Newton
[1]; Day 14, R (non-treated) hindlimb, Group 2 Low, 6.25 μg
  Algometer force on surgical site when the dog moved the leg (mean ± SD): 5.2 ± 1.5 Newton
[1]; Day 14, R (non-treated) hindlimb, Group 3 Local, 50 μg
  Algometer force on surgical site when the dog moved the leg (mean ± SD): 4.7 ± 3.5 Newton
[1]; Day 28, L (treated) hindlimb, Group 1 High, 25 μg
  Algometer force on surgical site when the dog moved the leg (mean ± SD): 5.8 ± 2.4 Newton
[1]; Day 28, L (treated) hindlimb, Group 2 Low, 6.25 μg
  Algometer force on surgical site when the dog moved the leg (mean ± SD): 4.5 ± 3.9 Newton
[1]; Day 28, L (treated) hindlimb, Group 3 Local, 50 μg
  Algometer force on surgical site when the dog moved the leg (mean ± SD): 4.4 ± 2.6 Newton
[1]; Day 28, R (non-treated) hindlimb, Group 1 High, 25 μg
  Algometer force on surgical site when the dog moved the leg (mean ± SD): 4.6 ± 3.5 Newton
[1]; Day 28, R (non-treated) hindlimb, Group 2 Low, 6.25 μg
  Algometer force on surgical site when the dog moved the leg (mean ± SD): 2.7 ± 2.1 Newton
[1]; Day 28, R (non-treated) hindlimb, Group 3 Local, 50 μg
  Algometer force on surgical site when the dog moved the leg (mean ± SD): 5.0 ± 1.9 Newton
[1]; Day 56, L (treated) hindlimb, Group 1 High, 25 μg
  Algometer force on surgical site when the dog moved the leg (mean ± SD): 7.0 ± 3.1 Newton
[1]; Day 56, L (treated) hindlimb, Group 2 Low, 6.25 μg
  Algometer force on surgical site when the dog moved the leg (mean ± SD): 4.9 ± 1.8 Newton
[1]; Day 56, L (treated) hindlimb, Group 3 Local, 50 μg
  Algometer force on surgical site when the dog moved the leg (mean ± SD): 10.9 ± 8.7 Newton
[1]; Day 56, R (non-treated) hindlimb, Group 1 High, 25 μg
  Algometer force on surgical site when the dog moved the leg (mean ± SD): 6.3 ± 1.2 Newton
[1]; Day 56, R (non-treated) hindlimb, Group 2 Low, 6.25 μg
  Algometer force on surgical site when the dog moved the leg (mean ± SD): 5.7 ± 1.7 Newton
[1]; Day 56, R (non-treated) hindlimb, Group 3 Local, 50 μg
  Algometer force on surgical site when the dog moved the leg (mean ± SD): 9.0 ± 4.6 Newton
[2]
  Additional pain medications when the dog woke up: No additional pain medications
  Motor functions after waking up: preserved
